Patent US6261760A, “Regulation of the cell cycle by sterols” (priority 1999, dated 2001)
Entries after “also recorded” stand apart in the source; their conditions may differ. Where two headings read alike, the source gives them in different places.

What was measured:
[1] = system: fibroblast monolayers; experiment: Cellular cholesterol mass (FC, EC, total); assay type: cell-based, human; details: +NEM 2 mM; increase over 120 min, 37° C.
Method: The FC and EC mass of cell monolayers was determined before and after incubation with lipoprotein as described above. Portions of the chloroform phase were analyzed for total and free cholesterol. Except where indicated each data point represents the mean of triplicate dishes. The coefficient of variation was <5% of means in these experiments.
120 min. at 37° C. Initial cell FC was […].

[2] = system: intracellular FC vesicle fractions of fibroblast monolayers; experiment: D2O-Ficoll density gradient fractionation of LDL-derived 3H-FC vesicles; assay type: cell-based, human; details: NEM 2 mM
Method: Early endosomal vesicles were labeled with LDL-derived ^3 H-FC by a modification of procedures described by Woodman & Warren (1991) J. Cell Biol., 112:1133-1141. Fibroblast monolayers in 10 cm dishes were washed in ice-cold PBS. The cells were labeled by incubation (2 h, 4° C.) with ^3 H-FC LDL. The monolayers were washed in PBS and brought to 31° C. for 0-15 min. The cells were then quickly chilled on ice, and cold unlabeled LDL was added (15 min, 4° C.) to displace any remaining surface-bound labeled LDL and all subsequent steps were carried out at 0-4° C.
Cells from three 10 cm dishes were used for each gradient. Monolayers were washed with 140 mM sucrose, 0.5 mM MgCl2, 1 mM EGTA, 20 mM 2-[N-morpholino]ethanesulfonic acid (MES), 70 mM potassium acetate, pH 6.6 (`vesicle buffer`) (Woodman & Warren, supra.). […] Fractions (~0.6 ml) were collected dropwise and the distribution of FC label determined. […] Solution density was determined gravimetrically using […] portions of each fraction. […]
The identity of intracellular transport intermediates and the extent of any cross-contamination between fractions was established using specific antibodies to protein markers, labeled ligands of receptor proteins, and assays of enzyme proteins. […] The distribution of antigen between different gradient fractions was determined with a computerized scanner (ImageQuant, Molecular Devices, Sunnyvale, Calif., USA).

[3] = system: vesicular transport; details: assays of vesicular transport in vitro; cited from earlier work
[4] = system: intracellular FC transport to the cell surface in fibroblast monolayers; experiment: Transfer of intracellular 3H-FC to the cell surface (cholesterol oxidase); assay type: cell-based, human; details: in words
Method: This assay utilized the finding (see Example 1) that only FC in the caveolar fraction of the plasma membrane fraction was modified by cholesterol oxidase in unfixed fibroblast monolayers.
The rate at which intracellular LDL-derived ^3 H-FC became accessible at the cell surface was measured as follows. Cell monolayers were labeled with ^3 H-FC LDL under the conditions shown for each experiment. Unbound and adsorbed LDL were removed as described above. In some experiments metabolic inhibitors of different transport steps were then added for 30 min at 15° C. […] Cholesterol oxidase (Boehringer-Manheim, Indianapolis, Ind., USA) was added in PBS to a final concentration of 1 U ml^-1. Incubation was for 4 h at 0° C. The cells were washed with ice-cold PBS, and extracted with 0.1 N NAOH. Cell total lipid was extracted with chloroform-methanol (1:1 v/v). […] .
Fibroblast monolayers were prelabeled with FC-labeled LDL for 2 min at 31° C. Medium and surface-bound labeled LDL were removed as described above. The cells were incubated with inhibitors of intracellular transport for 30 min at 15° C. Movement of FC label to the cell surface remained negligible (FIG. 11). The cells were brought to 31° C. for 15 min, and then cooled on wet ice. ^3 H-FC transfer to the cell surface (in the presence and absence of inhibitor) was assayed with cholesterol oxidase as described above.

[5] = system: LDL FC uptake by fibroblast monolayers; experiment: Effects of metabolic inhibitors on uptake of 3H-cholesterol from LDL (Example 1)
[6] = system: LDL FC uptake by fibroblast monolayers; experiment: Transfer of LDL-derived 3H-FC into fibroblast monolayers with metabolic inhibitors (Example 2); assay type: cell-based, human; details: brefeldin A, vinblastine, taxol, nocodazole; NEM 2 mM
[7] = system: fibroblast monolayers; experiment: FC efflux from fibroblast monolayers (3H-FC label); assay type: cell-based, human
Method: Fibroblast monolayers were equilibrated with ^3 H-FC-labeled native plasma or with isolated ^3 H-labeled LDL, as specified for each experiment. Following incubation, the dishes were washed with albumin-complete PBS and then (×4) with complete PBS. They were then incubated for 3 min with unlabeled plasma or lipoprotein fractions and the rate of appearance of radioactivity in the medium determined. Samples of medium ([…]) were immediately chilled in ice water and centrifuged (10 min, 2000×g) at 0-2° C. ^3 H-cholesterol radioactivity in the supernatant was either assayed directly, or fractionated by agarose gel electrophoresis. FC efflux was linear as previously reported (Kawano et al., Biochemistry, 32: 5025-5028 (1993)).
For electrophoresis, […] portions of labeled medium were added to strips of 0.75% w/v agarose in 0.025 M barbital buffer (pH 8.6) and separated as previously described (Fielding et al., Biochemistry, 30: 8551-8557 (1991)). 2.5 mm gel fractions were then collected, and radioactivity measured. The location of major lipoprotein classes was determined from strips run simultaneously with whole native plasma equilibrated (60 min, 37° C.) With ^3 HFC.
Rates of FC influx and efflux between medium and fibroblast monolayers preincubated for 24 h with 7-80% native human plasma in DMEM were determined. Cells equilibrated in 80% compared to 7% v/v plasma contained 35-40% more total cholesterol but only 10-15% more FC. In 50% v/v plasma, cholesteryl ester levels were lower than in 80% plasma but FC levels were almost the same. Rates of transfer of FC between the cells and their extracellular medium were determined for each plasma dilution. […] was measured as the rate of transfer of ^3 H-FC radioactivity from labeled native plasma to unlabeled cells. […] was determined as the rate of transfer of radioactivity from uniformly labeled cells to unlabeled native plasma medium.

[8] = system: caveolin mRNA; experiment: Caveolin mRNA levels (Northern blot); details: 80% v/v plasma + 50 μM cholesterol α-epoxide, 8 h with actinomycin, 37° C.
[9] = system: caveolin promoter; experiment: Luciferase expression driven by caveolin promoter (pGL3); assay type: cell-based; details: Homo sapiens, Skin fibroblast, 3 h; 50 μM cholesterol α-epoxide, 80% v/v plasma; read-out: reduction of luciferase expression
From the text: The pGL3 luciferase vector (Promega, Madison, Wis.) was used for cloning purposes. A 705 bp Bgl II restriction fragment corresponding to -781 to -76 bp (relative to the translational start site) was isolated from the 4 kb genomic fragment described above. This was subcloned into the Bgl II site of the vector. The orientation of the insert was identified by restriction mapping and DNA sequencing.
Mutations of sequences within the promoter were created by deletional mutagenesis on single strand DNA, using the Sculptor mutagenesis kit (Amersham). On the basis of the caveolin gene promoter sequence, three oligonucleotides were designed: i) from -664 to -620 with bases -646 to -637 deleted; ii) from -412 to -363 with bases -395 to -386 deleted; and iii) from -302 to -262 with bases -287 to -278 deleted. These were used to generate the promoter mutants designated Δ1, Δ2 and Δ3 respectively.
Normal skin fibroblasts were plated at a density of 5-8×10^5 cells per 6 cm dish. These cells were transfected with 10 μg per dish of the wild type (705 bp) caveolin promoter fragment subcloned in the forward and reverse orientation in the luciferase expression vector pGL3. […] After 10-20 sec, luciferase activity was determined using an analytical luminometer (Monolight 2010, Analytical Luminescence Laboratories, San Diego, Calif.).

[10] = system: LDL FC uptake by fibroblast monolayers; details: in words
[11] = system: fibroblasts; details: cited from earlier work
[12] = system: fibroblasts; details: fibroblast monolayers; cited from earlier work
[13] = system: caveolin mRNA; details: literature; cited from earlier work
[14] = system: human hepatoblastoma (HepG2) cells; details: cited from earlier work

Structure (SMILES): CCN1C(=O)C=CC1=O [N-ethylmaleimide]
- D total cholesterol [1]: 0.4 ± 0.2 Fg dish^-1
- FC label with clathrin at d 1.12 g ml^-1 [2]: no peak of FC label was present with clathrin at d 1.12 g ml^-1
- concentration for maximal inhibition [3]: 1 mM
- effect on transport of intracellular 3H-FC to the cell surface [4]: inhibited the return of FC to the cell surface, but less effectively than did nocodazole
- inhibition of the uptake of free cholesterol from LDLs ([5]; FIG. 8): > 80%
- time course of inhibition of LDL FC uptake ([5]; NEM: first 10-15 min, KNO3: 50 mM, data not shown): no effect
- time to complete inhibition ([5]; cells prelabeled to equilibrium (24 h) with 3H-FC): ≤ 30 min
- inhibition of the uptake of 3H-FC from LDL ([5]; preincubated 30 min with NEM, incubation beyond 10-15 min, FIG. 8): > 80%
- effect on uptake of 3H-FC from LDL [6]: blocks selective uptake of FC from LDL
- Lipoprotein-resistant label ([7]; +NEM 2 mM, proportion retained after 80% v/v plasma-PBS, 10 min, 37° C.): 0.24 ± 0.03
- initial rate of efflux of FC from prelabeled cells to plasma ([7]; in words, listed as NEM): increased rate of efflux; also recorded: increased several-fold

Structure (SMILES): CC(C)CCC[C@@H](C)[C@H]1CC[C@H]2[C@@H]3CC4OC45C[C@@H](O)CC[C@]5(C)[C@H]3CC[C@]12C (stereo partly drawn) [cholesterol α-epoxide]
- caveolin mRNA level relative to total RNA [8]: 0.47
- inhibition at 50 µM [9]: 60%

Structure (SMILES): C=C[C@@]1(C)CC(=O)[C@]2(O)[C@@]3(C)[C@@H](O)CCC(C)(C)[C@@H]3[C@H](O)[C@H](OC(C)=O)[C@@]2(C)O1 [Forskolin]
- effect on LDL FC uptake [10]: no effect
- effect on transfer of newly-synthesized cholesterol to plasma membrane [11]: stimulated

Structure (SMILES): CC(=O)[C@H]1CC[C@H]2[C@@H]3CCC4=CC(=O)CC[C@]4(C)[C@H]3CC[C@]12C [Progesterone]
- transport of FC between the TGN and cell surface [12]: inhibited FC transport between the TGN and cell surface
- effect on LDL FC uptake [10]: no effect
- effect on caveolin mRNA levels [13]: reduced equilibrium caveolin mRNA levels
- effect on LDL FC uptake ([5]; in words): without effect
- effect on transfer of FC from plasma membrane to cell interior [14]: promoted the transfer of FC from the plasma membrane to the interior of the cell
